Results as given in patent publication US20240391930A1, “SPIROCYCLIC BICYCLIC MODULATORS OF CHOLESTEROL BIOSYNTHESIS AND THEIR USE FOR PROMOTING REMYELINATION” (GENENTECH, INC., priority 2021, published 2024).

Assays:
[1] = biological target: T1, human emopamil binding protein and human 7-dehydrocholesterol reductase (hEBP-DHCR7) (Homo sapiens, UniProt Q15125); experiment: hEBP-DHCR7 radioligand filtration binding assay; settings: membranes of HEK293 co-expressing hEBP and DHCR7; [3H] 2-thia-6-azaspiro[3.4]octane radioligand; 8 doses 0.06 to 5000 nM
T1 construct: expressed in transfected cells; host or cells: HEK 293 cells, transient transfection with 2 DNA constructs
Description: Membrane Preparation: human emopamil binding protein and human 7-dehydrocholesterol reductase co-expressing cells were generated by transient transfecting host human embryonic kidney (HEK) 293 cells with 2 DNA constructs containing each protein's coding sequence. Cells were suspension cultured at 37° C. with 5% CO2 in […] 293 Expression Medium (Thermofisher). Whole cell membrane was prepared by harvesting the cell pellet, adding cold membrane buffer (50 mM Tris, pH7.5, lx Roche COMPLETE EDTA-free protease inhibitor cocktail) 10 times volume of the cell pellets weight, lysing cell pellet on ice by using Dounce homogenizer, spinning at 200 g 4° C. for 15 min, collecting supernatant and spinning again at 25000 g 4° C. for 50 min, transferring pellet to Dounce homogenizer, re-suspending pellet by homogenizing in membrane buffer on ice to reach ˜25 mg/mL, then keeping whole cell membrane aliquots at −80° C.
Compounds were prepared in a 96-well U bottom plate using an Echo550 machine and 10 mM compound DMSO stock solution, followed by an 8-dose 5-fold serial dilutions protocol with final testing compound concentration ranging from 0.06 to 5000 nM, with DMSO back fill to 100 nL/well and n=2. […] The UniFilter-96 GF/B plates were pre-treated by adding 50 µl/well of 0.3% (v/v) PEI to UniFilter-96 GF/B plates. The plates were sealed and incubated at 4° C. for 3 hrs. Then, the plates were washed with ice-cold assay buffer 3 times. The radioligand binding assay was prepared by adding assay buffer diluted hEBP-DHCR7 membrane at 66.7 μg/ml×150 l/well into the 96-well compound plate to reach 10 μg membrane per well. Then, the assay buffer diluted [3H]—((S)-6-(2-Methyl-3-(6-(trifluoromethyl)pyridin-3-yl)propyl)-2-thia-6-azaspiro[3.4]octane 2,2-dioxide or (R)-6-(2-Methyl-3-(6-(trifluoromethyl)pyridin-3-yl)propyl)-2-thia-6-azaspiro[3.4]octane 2,2-dioxide) was added at 25 nM×50 l/well. Following this, the plate was centrifuged at 1000 rpm for 30 secs. The plate was then sealed and agitated at 600 rpm at 22° C. for 5 min, and then incubated at 22° C. for 3 hrs. The incubation was stopped by transferring the binding solution to the pre-treated UniFilter-96 GF/B plate, vacuum filtrated, and then washed four times with ice-cold assay buffer. Following this, the plates were dried at 37° C. for 45 min. The plates were then sealed at the bottom. 40 µl/well of scintillation cocktail was added to the plates. A MicroBeta2 microplate counter was then used to read the plate and analyze the data. For reference and test compounds, the results are expressed as % Inhibition, using the normalization equation: N=100−100×(U−C2)/(C1−C2), where U is the unknown value, C1 is the average of high controls, and C2 is the average value of low controls. The IC50 was determined by fitting percentage of inhibition as a function of compound concentrations with Hill equation using XLfit. Results are expressed as hEBP-DHCR7 Ki (uM) in Table 4. Ki was calculated as described above; * indicates isolated isomer or isomers, but that the stereochemistry has not been assigned.

[2] = tested on: zymostenol accumulation in EpiSC-derived OPCs (EBP); experiment: GC/MS-based sterol profiling (zymostenol accumulation); type: cell-based; settings: Mus musculus, 24 hours, 8 doses from 0.15 nM to 333 nM, read-out: Zymostenol GCMS EC50
Description: (§1) To assess effects of treatments on OPCs, all treatments were assayed in two or more independent platings of epiblast stem cell-derived OPCs (EpiSC). EpiSC-derived OPCs were obtained using in vitro differentiation protocols and culture conditions described previously (Najm et al, 2011, Nature Methods). OPCs were expanded and frozen down in aliquots. OPCs were thawed into growth conditions for at least one passage before use in further assays.
Sterols were monitored using a modified Folch wash protocol (Hubler et al, 2018, Nature). EpiSC-derived OPCs were plated at 100,000 cells per well in PO- and laminin-coated 96-well plates in N2B27 media without growth factors. After 24 hours, cells were rinsed with saline and plates were frozen. Cholesterol-d7 standard was then added to each well before drying under nitrogen stream and derivatization with 55 μl of bis(trimethylsilyl) trifluoroacetamide. After derivatization, 2 μl were analyzed by gas chromatography/mass spectrometry using an Agilent 5973 Network Mass Selective Detector equipped with a 6890 gas chromatograph system and a HP-5MS capillary column (30 m×0.25 mm×[…]). Samples were analyzed in full scan mode using electron impact ionization; ion fragment peaks were integrated to calculate sterol abundance, and quantitation was relative to cholesterol-d7. The following ion fragments were used to quantitate each metabolite: cholesterol-d7 (465), FF-Mas (482), cholesterol (368), zymostenol (458), zymosterol (456), Desmosterol (456, 343), 7-dehydrocholesterol (456, 325), lanosterol (393), lathosterol (458), 14-dehydrozymostenol (456, 351). […] All standards were obtained from Avanti Polar Lipids unless otherwise indicated. Calibration curves were generated by injecting varying concentrations of sterol standards and maintaining a fixed amount of cholesterol-D7. For normalized zymostenol accumulation results, the total amount of zymostenol measured after drug treatment was divided by the total amount of zymostenol accumulated after 24 hr treatment with 100 nM positive control reference.

[3] = tested on: EpiSC-derived OPCs; experiment: In vitro phenotypic screening of OPCs (MBP high-content imaging); type: cell-based; settings: Mus musculus, 72 h; percentage of MBP-positive oligodendrocytes, 3 days, 0.5 nM to 1000 nM; read-out: OPC EC50
Description: as §1
EpiSC-derived OPCs were grown and expanded in poly-L-ornithine (PO) and laminin-coated flasks in N2B27 media (DMEM/F12 (Gibco), N2-MAX (R&D Systems), B-27 (ThermoFisher), and GlutaMax (Gibco)) supplemented with FGF2 ([…], R&D systems, 233-FB-025) and PDGF-AA ([…], R&D systems, 233-AA-050) before harvesting for experiments. The cells were seeded onto poly-L-ornithine or poly-D-lysine coated CellCarrier Ultra plates (PerkinElmer) coated with laminin (Sigma, L2020) at a density of 150,000/cm^2 in N2B27 media without growth factors. For dose-response testing, a 1000× compound stock in dimethyl sulphoxide (DMSO) was added to assay plates, resulting in 8-point dose curves with final concentrations between 1000 nM and 0.5 nM. Positive controls and DMSO vehicle controls were included in each assay plate. Cells were incubated under standard conditions (37° C., 5% CO2) for 3 days and fixed with 4% paraformaldehyde (PFA) in phosphate buffered saline (PBS) for 20 min. Fixed plates were washed with PBS, permeabilized with 0.1% Triton X-100, and blocked with 10% donkey serum (v/v) in PBS for 40 min. Then, cells were labelled with MBP antibodies (Abcam, ab7349; 1:200) for 2 h at room temperature, washed with PBS, and stained with Alexa Fluor conjugated secondary antibodies (1:500) for 45 min. Nuclei were visualized by DAPI staining (Sigma; 1 μg/ml), followed by further PBS washes.
Cells and cell culture plates were imaged on the Operetta High Content Imaging and Analysis system (PerkinElmer). Analysis (PerkinElmer Harmony and Columbus software) began by identifying intact nuclei stained by DAPI. The peri-nuclear region of each cell was then cross-referenced with the […] (MBP) stain to identify oligodendrocyte nuclei, and from this the percentage of oligodendrocytes was calculated.

T1 sequence (Q15125 whole entry): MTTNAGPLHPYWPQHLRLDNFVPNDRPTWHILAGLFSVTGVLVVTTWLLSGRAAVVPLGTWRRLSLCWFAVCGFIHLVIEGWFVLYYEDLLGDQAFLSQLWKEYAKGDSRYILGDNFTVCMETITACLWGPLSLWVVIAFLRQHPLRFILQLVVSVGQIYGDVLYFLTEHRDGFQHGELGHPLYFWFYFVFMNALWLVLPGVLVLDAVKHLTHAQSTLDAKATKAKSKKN

| Ki [1] [nM] | EC50 [2] [nM] | EC50 [3] [nM] | Structure (SMILES) |
| --- | --- | --- | --- |
| 42.5 | 14 | 64.6 | CC(C)n1nc(-c2cnc(C(F)(F)F)nc2)cc1[C@H]1[C@@H]2C[C@@H](N3CCC4(C3)CS(=O)(=O)C4)C[C@@H]21 (single isomer, unassigned) [Compound 102] |
| 19.9 | 4.8 | 13 | CC(C)n1nc(-c2cncc(C(F)(F)F)c2)cc1[C@H]1[C@@H]2C[C@H](N3CC[C@]4(CCS(=O)(=O)C4)C3)C[C@@H]21 (single isomer, unassigned) [Compound 10*] |
| 134 | 12 | 60 | O=S1(=O)CC2(CCN([C@@H]3C[C@@H]4[C@H](C3)[C@H]4c3cc(C(F)(F)F)nn3CC(F)F)CC2)C1 (single isomer, unassigned) [Compound 62*] |
| 50.3 | 11 | 48 | CC(C)n1nc(C(F)(F)F)cc1[C@H]1[C@@H]2C[C@@H](N3CCC4(CC3)CS(=O)(=O)C4)C[C@@H]21 (single isomer, unassigned) [Compound 43*] |
| 19.8 | 4.4 | 6.5 | CCn1nc(-c2ccnc(C(F)(F)F)c2)cc1[C@H]1[C@@H]2C[C@@H](N3CCC4(C3)CS(=O)(=O)C4)C[C@@H]21 [Compound 26, 6-((1R,3s,5S,6r)-6-(1-ethyl-3-(2-(trifluoromethyl)pyridin-4-yl)-1H-pyrazol-5-yl)bicyclo[3.1.0]hexan-3-yl)-2-thia-6-azaspiro[3.4]octane 2,2-dioxide] |
| 27 | 6.8 | 14 | CC(C)n1nc(C(F)(F)F)cc1[C@H]1[C@@H]2C[C@H](N3CCC4(CC3)CS(=O)(=O)C4)C[C@@H]21 (single isomer, unassigned) [Compound 44*] |
| 12 | 3.3 | 19 | CC(C)(C)n1nc(C(F)(F)F)cc1[C@H]1[C@@H]2C[C@H](N3CCC4(C3)CS(=O)(=O)C4)C[C@@H]21 (single isomer, unassigned) [Compound 58] |
| 70.5 | 21 | 190 | O=S1(=O)CC2(CCN([C@@H]3C[C@@H]4[C@H](C3)[C@H]4c3cc(C(F)(F)F)nn3CC(F)F)C2)C1 (single isomer, unassigned) [Compound 90*] |
| 34.6 | 24 | 44 | CC(C)n1nc(-c2cncc(OC(F)F)c2)cc1[C@H]1[C@@H]2C[C@H](N3CCC4(CC3)CS(=O)(=O)C4)C[C@@H]21 (single isomer, unassigned) [Compound 46*] |
| 97.3 | 6.8 | 33 | CCn1nc(-c2cncc(C(F)(F)F)c2)cc1[C@H]1[C@@H]2C[C@@H](N3CCC4(CC3)CS(=O)(=O)C4)C[C@@H]21 (single isomer, unassigned) [Compound 53*] |

The next lines start with the compound.

| Structure (SMILES) | Ki [1] [nM] | EC50 [2] [nM] | EC50 [3] [nM] |
| --- | --- | --- | --- |
| CC(C)n1nc(-c2cccc(C(F)(F)F)c2)nc1[C@H]1[C@@H]2C[C@@H](N3CCC4(C3)CS(=O)(=O)C4)C[C@@H]21 [Compound 51, 6-((1R,3s,5S,6r)-6-(1-Isopropyl-3-(3-(trifluoromethyl)phenyl)-1H-1,2,4-triazol-5-yl)bicyclo[3.1.0]hexan-3-yl)-2-thia-6-azaspiro[3.4]octane 2,2-dioxide] | 11.7 | 6.4 | 37 |
| CCn1nc(-c2cncc(F)c2)cc1[C@H]1[C@@H]2C[C@@H](N3CCC4(C3)CS(=O)(=O)C4)C[C@@H]21 (single isomer, unassigned) [Compound 68*] | 86.2 | 14 | 60 |
| CCn1nc(-c2cccnc2)cc1[C@H]1[C@@H]2C[C@H](N3CCC4(C3)CS(=O)(=O)C4)C[C@@H]21 (single isomer, unassigned) [Compound 65*] | 51.9 | 18 | 65 |
| CCn1nc(-c2cncc(C(F)(F)F)c2)cc1[C@H]1[C@@H]2C[C@H](N3CCC4(CC3)CS(=O)(=O)C4)C[C@@H]21 (single isomer, unassigned) [Compound 54*] | 32.8 | 9.1 | 31 |
| CC(C)n1nc(-c2cncc(C(F)(F)F)c2)cc1[C@H]1[C@@H]2C[C@@H](N3CC[C@@]4(CCS(=O)(=O)C4)C3)C[C@@H]21 (single isomer, unassigned) [Compound 7*] | 17.3 | 8.9 | 37 |
| CC(C)n1nc([C@H]2CC[C@H](C(F)(F)F)CC2)cc1[C@H]1[C@@H]2C[C@@H](N3CCC4(C3)CS(=O)(=O)C4)C[C@@H]21 (single isomer, unassigned) [Compound 107] | 16 | 7.59 | 52.5 |
| CC(C)n1nc(C(F)(F)F)cc1[C@H]1[C@@H]2C[C@@H](N3CCC[C@@]4(CCS(=O)(=O)C4)C3)C[C@@H]21 (single isomer, unassigned) [Compound 92*] |  | 45.1 | 58.4 |
| CC(C)(C)n1nc(C(F)(F)F)cc1[C@H]1[C@@H]2C[C@H](N3CCC4(CC3)CS(=O)(=O)C4)C[C@@H]21 [Compound 56, 7-((1R,3r,5S,6r)-6-(1-(tert-butyl)-3-(trifluoromethyl)-1H-pyrazol-5-yl)bicyclo[3.1.0]hexan-3-yl)-2-thia-7-azaspiro[3.5]nonane 2,2-dioxide] |  | 5.7 | 19 |
